# Results published in publication PMC3912022, “A Fluorescence-Based Assay for Measuring the Redox Potential of 5-Lipoxygenase Inhibitors” (PLoS ONE, 2014).
# “Also recorded” adds a separate entry of the source.
# Assays:
# Assay type in all cases: biochemical
# [1] = target: T1, Human recombinant 5-LO (Homo sapiens, UniProt P09917); assay: Redox absorbance assay (13(S)-HpODE absorbance at 234 nm, pseudo-peroxidase activity); conditions: for Redox absorbance, Δabs: absorbance at 234 nm, change over 180 seconds, average ± SD of triplicate
# T1 construct: purchased Cayman Chemical
# T1 sequence (P09917 1-674): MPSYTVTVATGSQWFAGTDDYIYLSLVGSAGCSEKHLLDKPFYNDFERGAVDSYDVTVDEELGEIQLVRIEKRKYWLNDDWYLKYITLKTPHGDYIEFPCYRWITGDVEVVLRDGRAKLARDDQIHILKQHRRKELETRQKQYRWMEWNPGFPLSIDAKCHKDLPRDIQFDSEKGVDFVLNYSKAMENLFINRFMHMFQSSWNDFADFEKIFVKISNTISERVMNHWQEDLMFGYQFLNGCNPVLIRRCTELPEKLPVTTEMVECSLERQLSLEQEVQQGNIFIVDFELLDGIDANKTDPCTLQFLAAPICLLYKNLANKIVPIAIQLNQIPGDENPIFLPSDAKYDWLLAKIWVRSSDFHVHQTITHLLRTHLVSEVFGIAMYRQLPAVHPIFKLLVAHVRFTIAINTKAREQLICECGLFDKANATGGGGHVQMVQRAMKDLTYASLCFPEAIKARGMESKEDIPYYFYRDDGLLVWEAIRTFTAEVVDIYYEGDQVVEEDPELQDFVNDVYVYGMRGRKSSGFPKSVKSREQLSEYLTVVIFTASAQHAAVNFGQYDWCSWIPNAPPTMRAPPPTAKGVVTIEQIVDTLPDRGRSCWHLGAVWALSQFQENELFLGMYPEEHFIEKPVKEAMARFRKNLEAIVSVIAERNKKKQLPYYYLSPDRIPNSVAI
# Excerpt: (§1) Lipid peroxide is consumed when 5-LO is activated to the ferric iron form. The enzyme remains activated during the dioxygenation reaction cycle. If a redox inhibitor is present, it reduces the catalytic iron into the ferrous form and inhibits the enzyme reaction. Another lipid peroxide must be consumed to re-activate 5-LO to the ferric form. As a result, reductions in the amount of lipid peroxide in the reaction mixture signify redox activity. […] The absorbance-based method measures the amount of peroxide by its absorbance at 234 nm, and the fluorescence-based method measures it by analyzing its reaction with H2DCFDA.
# The redox absorbance assay was carried out as described by Zweifel, et al.. Specifically, 10 µl of 1 mM inhibitor solution was mixed with 490 µl of 20 µM 13-HpODE solution. After 3 minutes of incubation at room temperature, the solution was transferred to a cuvette. The reaction started when 500 µl of the 20 unit/ml enzyme solution was added to the peroxide-inhibitor mixture in the cuvette. The absorbance of 13(S)-HpODE at 234 nm was measured immediately after mixing, using a SpectraMax M5 spectrophotometer. Data points were collected for 3 minutes. The reaction buffer consisted of 50 mM potassium phosphate buffer (pH 7.6), 0.1 mM EDTA, 100 µM ATP, and 0.3 mM CaCl2.
# The accuracy and efficacy of the redox absorbance assay were determined by testing the selected compounds. The absorbance of 13(S)-HpODE was measured at 234 nm, and the values were recorded every second for 3 minutes.
# In theory, because the extinction coefficient of 13(S)-HpODE at 234 nm is 23,000 M^−1 cm^−1, 10 µM 13(S)-HpODE contributes a maximum of 0.23 in absorbance.
# [2] = target: T1, Human recombinant 5-LO; assay: Redox fluorescence assay (remaining 13(S)-HpODE by H2DCFDA fluorescence after pseudo-peroxidase reaction)
# Excerpt: as §1
# H2DCF-DA (60 µM) was pre-cleaved by 5-LO crude lysate in the reaction buffer (50 mM Tris, pH 7.5, 2 mM ethylenediaminetetraacetic acid [EDTA], 2 mM CaCl2, and 10 µM adenosine triphosphate [ATP]) for more than 10 minutes before the main reaction, as previously reported. In a 384-well plate, 10 µl of 450 mU/µl enzyme solution was distributed and mixed with 10 µl of inhibitor solution with various concentrations. 13(S)-HpODE (10 µM; 20 µl) was added to each well to start the reaction. After 3 minutes, pre-cleaved H2DCF-DA dye (20 µl) was added and incubated for more than 10 minutes. The fluorescence signal was measured using a fluorometer at excitation and emission wavelengths of 485 and 530 nm, respectively. All steps were carried out at room temperature.
# The highest and lowest compound concentrations in the serially diluted set were 100 µM and 1.69 nM, respectively. […] The final DMSO amount in the reaction mixture was kept at 1% throughout the experiments. […] Four wells without any inhibitors represented the “100% peroxide” control wells, and the average fluorescence values in the control wells were used for normalization of fluorescence data. The concentration points were duplicated in each test and the concentration-dependent fluorescence data were fitted with three-parameter logistic regression in Prism using the top and bottom constraints of 100 and 0, respectively.
# [3] = target: T1, Human recombinant 5-LO; assay: Redox absorbance assay (13(S)-HpODE absorbance at 234 nm, pseudo-peroxidase activity)
# [4] = 10 µM inhibitor, 234 nm, 3 min kinetic curve, Figure 2
Structure (SMILES),"Redox absorbance, Δabs ([1]; 10 µM inhibitor)",EC50 [2] [µM],"absorbance pattern over time (redox / non-redox pattern) [1, 4]","redox activity in absorbance assay carried out in the fluorescence assay buffer ([3]; buffer of the redox fluorescence assay, Figure 4-C)","redox activity less than that of the stronger redox inhibitors ([2]; fluorescence assay, relative to stronger redox inhibitors) [%]","reduction in absorbance [1, 4]","share of the decrease in absorbance in the first 20 seconds ([1]; first 20 seconds of the reaction, Figure 2)","absorbance pattern in substrate-depleted conditions ([3]; 80 minutes after the start of the reaction, 234 nm, Figure 4)"
"COc1ccc(/C=C2\SC(c3ccc(Cl)cc3)=NC2=O)cc1 [CAY10649, (Z)-2-(4-chlorophenyl)-5-(4-methoxybenzylidene)thiazol-4(5H)-one]",0.014±0.011,> 100,–,–,–,–,–,–
"N#CC(=Cc1ccc(O)c(O)c1)C(=O)OCC=Cc1ccccc1 [CDC, cinnamyl 3,4-dihydroxy-alpha-cyanocinnamate]",0.015±0.005,0.13 ± 0.17,perfect non-redox pattern; also recorded: increases in the absorbance assay,redox activity was not detected,–,–,–,–
"O=C(O)C=Cc1ccc(O)c(O)c1 [Caffeic acid, 3,4-dihydroxy cinnamic acid]",0.005±0.003,–,no changes in absorbance over time,–,60,–,–,–
"CC(Cc1ccc(O)c(O)c1)C(C)Cc1ccc(O)c(O)c1 (centres unmarked) [NDGA, 4,4′-(2,3-dimethyl-1,4-butanediyl)bis-1,2-benzenediol]",0.009±0.007,–,increases in the absorbance assay,–,–,–,–,–
Cn1nccc1-c1ccc(Sc2cccc(C3(C(N)=O)CCOCC3)c2)cc1 [PF4191834],0.015±0.005,> 100,–,–,–,–,–,–

# Results, then the compound that gave them:
"Redox absorbance, Δabs ([1]; 10 µM inhibitor)",EC50 [2] [µM],"absorbance pattern over time (redox / non-redox pattern) [1, 4]","redox activity in absorbance assay carried out in the fluorescence assay buffer ([3]; buffer of the redox fluorescence assay, Figure 4-C)","redox activity less than that of the stronger redox inhibitors ([2]; fluorescence assay, relative to stronger redox inhibitors) [%]","reduction in absorbance [1, 4]","share of the decrease in absorbance in the first 20 seconds ([1]; first 20 seconds of the reaction, Figure 2)","absorbance pattern in substrate-depleted conditions ([3]; 80 minutes after the start of the reaction, 234 nm, Figure 4)",Structure (SMILES)
0.008±0.005,77.2 ± 35.1,–,–,–,–,–,–,"CCCCCCC(Sc1nc(Cl)cc(Nc2cccc(C)c2C)n1)C(=O)O (centres unmarked) [YS121, 2-[[4-chloro-6-[(2,3-dimethylphenyl)amino]-2-pyrimidinyl]thio]-octanoic acid]"
−0.025±0.018,–,clear redox pattern,–,–,0.042,about 50%,increased slowly over time,"CC(c1cc2ccccc2s1)N(O)C(N)=O (centres unmarked) [Zileuton, N-[1-benzo(b)thien-2-ylethyl]-N-hydroxy-urea]"
